The record followed here is patent US10258612B2, “Mitochondrial lipid permeable iron chelators for treating and preventing ischemia/reperfusion (I/R) injury in the heart following an ischemic event” (Northwestern University, priority 2015, dated 2019).

Entries after “also recorded” stand apart in the source; their conditions may differ.

In one assay the test system is H9c2 cells. Put plainly: H2O2-induced cell death in H9c2 cells. It counts as cell-based, rat. Particulars: chelator pretreatment, then H2O2. The method, then: (§1) H9c2 cardiomyoblasts were cultured in DMEM (ATCC) supplemented with 10% FBS (Thermo) and Penicillin/Streptomycin (Cellgro). HEK293T cells were cultured in MEM (Cellgro) supplemented with 10% FBS, sodium pyruvate (Cellgro) and Penicillin/Streptomycin. Unless otherwise specified, cells were treated with 200 μM of DFO or 100 μM of BPD for two hours when indicated prior to addition of 600 μM of H2O2 when indicated for 6 hours. RNA isolation and qRT-PCR RNA was isolated using RNA-STAT60 (Tel-Test) according to the manufacturer's instructions, and subjected to DNAse I (Ambion) digestion to remove residual DNA. Purified RNA was then reverse transcribed with Random Hexamer and Oligo dT(16) (Applied Biosystems) and amplified on a 7500 Fast Real-Time PCR system using Fast SYBR Green PCR Master Mix (Applied Biosystems). mRNA levels were calculated based on the difference of threshold Ct values in target gene and average Ct values of 18s, Actb, B2m, and Hprt in the same sample.
For in vitro studies, cells were resuspended in 1× Annexin V buffer (BD) and then stained with Alexa Fluor 350 conjugated Annexin V (Life Technology) and propidium iodide (Sigma) according to the manufacturer's instructions and analyzed on a LSRII flow cytometer (BD).

The test system of assay [1] is mitochondrial aconitase, complex I, II and IV. The experiment in a line: Mitochondrial enzyme and complex activities in H9c2 cells. Particulars: chelator pre-treatment, then H2O2. It counts as cell-based, rat. On the procedure: as §1
Mitochondria were isolated from cells as described above. Mitochondrial complex I, II and IV activity was measured as described previously (Spinazzi et al., 2012). Aconitase activity was measured using Aconitase Activity Microplate Assay Kit (Abcam). Citrate synthase activity was measured from the same sample using Citrate Synthase Activity Kit (BioVision) and was used to normalize the mitochondrial complex activity.

Regarding `c1ccc(-c2ccccn2)nc1` [BPD, 2,2′-bipyridyl], the H2O2-induced cell death entry with H9c2 cells is “significantly reversed H2O2-induced cell death; also recorded: protected cells against H2O2 induced cell death”. The “activities of mitochondrial aconitase, complex I, II and IV after H2O2 treatment” value in assay [1] was “protected the activities of mitochondrial aconitase, complex I, II and IV after H2O2 treatment”.
